# Data: PubChem BioAssay (NCI)
#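 Five concentrations, 48 hours, 96-well plates. Here, GI50 denotes the concentration required for 50% inhibition of growth. TGI marks complete inhibition of growth.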
# Tests used:
# Test in all cases: growth of human tumour cells (NCI), 48 h
# NCI/ADR-RES ovarian = system: NCI/ADR-RES ovarian
# SK-MEL-2 melanoma = system: SK-MEL-2 melanoma
# SR leukemia = system: SR leukemia
# MDA-MB-435 = system: MDA-MB-435
# CAKI-1 renal = system: CAKI-1 renal
# HT29 colon = system: HT29 colon
# HCT-15 colon = system: HCT-15 colon
# NCI-H522 lung = system: NCI-H522 lung
# SF-539 CNS = system: SF-539 CNS
# RXF 393 renal = system: RXF 393 renal
# MALME-3M melanoma = system: MALME-3M melanoma
# HS 578T breast = system: HS 578T breast
# HCC-2998 colon = system: HCC-2998 colon
# OVCAR-3 ovarian = system: OVCAR-3 ovarian
# ACHN renal = system: ACHN renal
# SNB-19 CNS = system: SNB-19 CNS
# UO-31 renal = system: UO-31 renal
# DU-145 prostate = system: DU-145 prostate
# RPMI-8226 leukemia = system: RPMI-8226 leukemia
# K-562 leukemia = system: K-562 leukemia
# IGROV1 ovarian = system: IGROV1 ovarian
# HOP-62 NSCLC = system: HOP-62 NSCLC
# UACC-62 melanoma = system: UACC-62 melanoma
# MOLT-4 leukemia = system: MOLT-4 leukemia
# PC-3 prostate = system: PC-3 prostate
# SF-295 CNS = system: SF-295 CNS
# MDA-MB-231 breast = system: MDA-MB-231 breast
# SK-MEL-28 melanoma = system: SK-MEL-28 melanoma
# A498 renal = system: A498 renal
# SK-OV-3 ovarian = system: SK-OV-3 ovarian
# OVCAR-4 ovarian = system: OVCAR-4 ovarian
# SN12C renal = system: SN12C renal
# A549 NSCLC = system: A549 NSCLC
# SF-268 CNS = system: SF-268 CNS
# TK-10 renal = system: TK-10 renal
# SK-MEL-5 melanoma = system: SK-MEL-5 melanoma
# BT-549 breast = system: BT-549 breast
# UACC-257 melanoma = system: UACC-257 melanoma
# CCRF-CEM leukemia = system: CCRF-CEM leukemia
# M14 melanoma = system: M14 melanoma
# 786-0 renal = system: 786-0 renal
# LOX IMVI melanoma = system: LOX IMVI melanoma
# OVCAR-5 ovarian = system: OVCAR-5 ovarian
# MCF7 breast = system: MCF7 breast
# COLO 205 colon = system: COLO 205 colon
# HCT-116 colon = system: HCT-116 colon
# HOP-92 NSCLC = system: HOP-92 NSCLC
# T-47D breast = system: T-47D breast
# OVCAR-8 ovarian = system: OVCAR-8 ovarian
# HL-60(TB) leukemia = system: HL-60(TB) leukemia
# U251 CNS = system: U251 CNS
# SW-620 colon = system: SW-620 colon
# EKVX NSCLC = system: EKVX NSCLC
# SNB-75 CNS = system: SNB-75 CNS
# NCI-H460 lung = system: NCI-H460 lung
# KM12 colon = system: KM12 colon
# NCI-H226 lung = system: NCI-H226 lung
smiles,measurement,setting,value
CN1C(=O)CCC(N2C(=O)c3cccc(NCCOCCOCCNC(=O)c4cc5c(o4)C(=O)c4ccccc4C5=O)c3C2=O)C1=O (centres undefined),GI50,NCI/ADR-RES ovarian,6300 nM
same,TGI,NCI/ADR-RES ovarian,36500 nM
same,GI50,SK-MEL-2 melanoma,2200 nM
same,TGI,SK-MEL-2 melanoma,6490 nM
same,GI50,SR leukemia,1990 nM
same,TGI,SR leukemia,7500 nM
same,GI50,MDA-MB-435,1050 nM
same,TGI,MDA-MB-435,2280 nM
same,GI50,CAKI-1 renal,3350 nM
same,TGI,CAKI-1 renal,12100 nM
same,GI50,HT29 colon,2660 nM
same,TGI,HT29 colon,6980 nM
same,GI50,HCT-15 colon,1770 nM
same,TGI,HCT-15 colon,3830 nM
same,GI50,NCI-H522 lung,1960 nM
same,TGI,NCI-H522 lung,5080 nM
same,GI50,SF-539 CNS,1630 nM
same,TGI,SF-539 CNS,3020 nM
same,GI50,RXF 393 renal,1820 nM
same,TGI,RXF 393 renal,3790 nM
same,GI50,MALME-3M melanoma,151 nM
same,TGI,MALME-3M melanoma,316 nM
same,GI50,HS 578T breast,2700 nM
same,TGI,HS 578T breast,7460 nM
same,GI50,HCC-2998 colon,1990 nM
same,TGI,HCC-2998 colon,3960 nM
same,GI50,OVCAR-3 ovarian,1530 nM
same,TGI,OVCAR-3 ovarian,4000 nM
same,GI50,ACHN renal,2040 nM
same,TGI,ACHN renal,5170 nM
same,GI50,SNB-19 CNS,1580 nM
same,TGI,SNB-19 CNS,5570 nM
same,GI50,UO-31 renal,1590 nM
same,TGI,UO-31 renal,3310 nM
same,GI50,DU-145 prostate,1500 nM
same,TGI,DU-145 prostate,2890 nM
same,GI50,RPMI-8226 leukemia,2320 nM
same,TGI,RPMI-8226 leukemia,7060 nM
same,GI50,K-562 leukemia,2130 nM
same,TGI,K-562 leukemia,6520 nM
same,GI50,IGROV1 ovarian,1800 nM
same,TGI,IGROV1 ovarian,4310 nM
same,GI50,HOP-62 NSCLC,1970 nM
same,TGI,HOP-62 NSCLC,3430 nM
same,GI50,UACC-62 melanoma,1040 nM
same,TGI,UACC-62 melanoma,2350 nM
same,GI50,MOLT-4 leukemia,2380 nM
same,TGI,MOLT-4 leukemia,5800 nM
same,GI50,PC-3 prostate,2070 nM
same,TGI,PC-3 prostate,18000 nM
same,GI50,SF-295 CNS,1660 nM
same,TGI,SF-295 CNS,3080 nM
same,GI50,MDA-MB-231 breast,2640 nM
same,TGI,MDA-MB-231 breast,8770 nM
same,GI50,SK-MEL-28 melanoma,2040 nM
same,TGI,SK-MEL-28 melanoma,4270 nM
same,GI50,A498 renal,1710 nM
same,TGI,A498 renal,3200 nM
same,GI50,SK-OV-3 ovarian,3840 nM
same,TGI,SK-OV-3 ovarian,12400 nM
same,GI50,OVCAR-4 ovarian,1430 nM
same,TGI,OVCAR-4 ovarian,2800 nM
same,GI50,SN12C renal,1410 nM
same,TGI,SN12C renal,2790 nM
same,GI50,A549 NSCLC,1990 nM
same,TGI,A549 NSCLC,4490 nM
same,GI50,SF-268 CNS,2380 nM
same,TGI,SF-268 CNS,6790 nM
same,GI50,TK-10 renal,3500 nM
same,TGI,TK-10 renal,7550 nM
same,GI50,SK-MEL-5 melanoma,242 nM
same,TGI,SK-MEL-5 melanoma,652 nM
same,GI50,BT-549 breast,1380 nM
same,TGI,BT-549 breast,2700 nM
same,GI50,UACC-257 melanoma,1590 nM
same,TGI,UACC-257 melanoma,3110 nM
same,GI50,CCRF-CEM leukemia,3750 nM
same,TGI,CCRF-CEM leukemia,24400 nM
same,GI50,M14 melanoma,1350 nM
same,TGI,M14 melanoma,2740 nM
same,GI50,786-0 renal,2270 nM
same,TGI,786-0 renal,5640 nM
same,GI50,LOX IMVI melanoma,1110 nM
same,TGI,LOX IMVI melanoma,3000 nM
same,GI50,OVCAR-5 ovarian,1760 nM
same,TGI,OVCAR-5 ovarian,3170 nM
same,GI50,MCF7 breast,1460 nM
same,TGI,MCF7 breast,3540 nM
same,GI50,COLO 205 colon,2060 nM
same,TGI,COLO 205 colon,4040 nM
same,GI50,HCT-116 colon,2170 nM
same,TGI,HCT-116 colon,6210 nM
same,GI50,HOP-92 NSCLC,3710 nM
same,TGI,HOP-92 NSCLC,13600 nM
same,GI50,T-47D breast,2880 nM
same,TGI,T-47D breast,10300 nM
same,GI50,OVCAR-8 ovarian,2450 nM
same,TGI,OVCAR-8 ovarian,14700 nM
same,GI50,HL-60(TB) leukemia,2030 nM
same,TGI,HL-60(TB) leukemia,5880 nM
same,GI50,U251 CNS,2400 nM
same,TGI,U251 CNS,6100 nM
same,GI50,SW-620 colon,2600 nM
same,TGI,SW-620 colon,7930 nM
same,GI50,EKVX NSCLC,2590 nM
same,TGI,EKVX NSCLC,7280 nM
same,GI50,SNB-75 CNS,2740 nM
same,TGI,SNB-75 CNS,4720 nM
same,GI50,NCI-H460 lung,1330 nM
same,TGI,NCI-H460 lung,2970 nM
same,GI50,KM12 colon,3350 nM
same,TGI,KM12 colon,12600 nM
same,GI50,NCI-H226 lung,1670 nM
same,TGI,NCI-H226 lung,3780 nM
